Values belong to the compound of their own block, whether it stands above or below them.
How the values were obtained:
[1] = molecular target: Protein arginine N-methyltransferase 8 (Homo sapiens, UniProt Q9NR22); assay: Selectivity interaction (Methyltransferase screen (Scintillation proximity assays)) EUB0000255b PRMT8
[2] = molecular target: T1, Phosphatidylinositol 4,5-bisphosphate 3-kinase catalytic subunit delta isoform (Homo sapiens) (UniProt O00329); assay: Selectivity interaction (KinomeScan (DiscoverX)) EUB0000655a PIK3CD; conditions: at 10 µM
T1 sequence (whole entry): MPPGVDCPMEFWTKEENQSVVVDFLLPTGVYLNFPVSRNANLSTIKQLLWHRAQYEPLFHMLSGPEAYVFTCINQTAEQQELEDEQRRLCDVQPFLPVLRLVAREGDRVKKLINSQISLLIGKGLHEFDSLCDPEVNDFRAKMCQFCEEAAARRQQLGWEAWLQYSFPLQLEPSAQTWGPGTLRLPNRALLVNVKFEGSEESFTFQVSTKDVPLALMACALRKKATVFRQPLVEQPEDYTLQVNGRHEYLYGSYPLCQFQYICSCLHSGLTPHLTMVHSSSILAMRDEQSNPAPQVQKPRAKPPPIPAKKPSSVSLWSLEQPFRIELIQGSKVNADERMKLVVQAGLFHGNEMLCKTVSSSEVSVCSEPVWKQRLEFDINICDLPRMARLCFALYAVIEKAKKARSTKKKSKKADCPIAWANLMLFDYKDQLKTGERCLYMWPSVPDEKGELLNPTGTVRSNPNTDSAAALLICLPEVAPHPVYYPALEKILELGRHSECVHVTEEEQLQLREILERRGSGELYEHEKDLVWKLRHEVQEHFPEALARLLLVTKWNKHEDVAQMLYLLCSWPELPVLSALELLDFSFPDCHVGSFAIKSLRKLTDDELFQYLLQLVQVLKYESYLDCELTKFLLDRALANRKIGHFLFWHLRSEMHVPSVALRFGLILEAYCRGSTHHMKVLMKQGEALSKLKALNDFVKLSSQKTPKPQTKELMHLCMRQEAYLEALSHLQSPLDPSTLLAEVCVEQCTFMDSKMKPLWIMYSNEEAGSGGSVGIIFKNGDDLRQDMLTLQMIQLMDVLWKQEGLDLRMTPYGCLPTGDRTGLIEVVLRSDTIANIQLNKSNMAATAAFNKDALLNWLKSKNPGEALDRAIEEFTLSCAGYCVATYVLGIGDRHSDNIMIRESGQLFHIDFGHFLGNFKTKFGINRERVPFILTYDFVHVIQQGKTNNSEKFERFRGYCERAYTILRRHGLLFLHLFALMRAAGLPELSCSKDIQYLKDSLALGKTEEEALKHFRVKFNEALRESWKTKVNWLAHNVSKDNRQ

[3] = molecular target: Serine/threonine-protein kinase Nek4 (Homo sapiens) (UniProt P51957); assay: Selectivity interaction (KinomeScan (DiscoverX)) EUB0000618a NEK4; conditions: at 10 µM
[4] = molecular target: Serine/threonine-protein kinase PAK 2 (Homo sapiens) (UniProt Q13177); assay: Selectivity interaction (KinomeScan (DiscoverX)) EUB0000607a PAK2; conditions: at 10 µM
[5] = molecular target: Wee1-like protein kinase (Homo sapiens) (UniProt P30291); assay: Selectivity interaction (KinomeScan (DiscoverX)) EUB0001619a WEE1; conditions: at 1 µM
[6] = molecular target: Homeodomain-interacting protein kinase 3 (Homo sapiens, UniProt Q9H422); assay: Selectivity interaction (KinomeScan (DiscoverX)) EUB0000595a HIPK3; conditions: at 10 µM
[7] = molecular target: Tyrosine-protein kinase JAK1 (Homo sapiens, UniProt P23458); conditions: at 10 µM
[8] = system: Tyrosine-protein kinase ABL1 (Homo sapiens), P00519 [E255K]; conditions: at 10 µM
Insulin receptor = Insulin receptor (Homo sapiens, UniProt P06213); conditions: at 10 µM
[9] = molecular target: Serine/threonine-protein kinase SMG1 (Homo sapiens) (UniProt Q96Q15); assay: Selectivity interaction (ActivX KiNativ screen (kinase selectivity in THP-1 cell lysates)) EUB0000639a SMG1; assay type: subcellular; conditions: lysate
Sequence of Serine/threonine-protein kinase SMG1 (Homo sapiens) (Q96Q15 whole entry): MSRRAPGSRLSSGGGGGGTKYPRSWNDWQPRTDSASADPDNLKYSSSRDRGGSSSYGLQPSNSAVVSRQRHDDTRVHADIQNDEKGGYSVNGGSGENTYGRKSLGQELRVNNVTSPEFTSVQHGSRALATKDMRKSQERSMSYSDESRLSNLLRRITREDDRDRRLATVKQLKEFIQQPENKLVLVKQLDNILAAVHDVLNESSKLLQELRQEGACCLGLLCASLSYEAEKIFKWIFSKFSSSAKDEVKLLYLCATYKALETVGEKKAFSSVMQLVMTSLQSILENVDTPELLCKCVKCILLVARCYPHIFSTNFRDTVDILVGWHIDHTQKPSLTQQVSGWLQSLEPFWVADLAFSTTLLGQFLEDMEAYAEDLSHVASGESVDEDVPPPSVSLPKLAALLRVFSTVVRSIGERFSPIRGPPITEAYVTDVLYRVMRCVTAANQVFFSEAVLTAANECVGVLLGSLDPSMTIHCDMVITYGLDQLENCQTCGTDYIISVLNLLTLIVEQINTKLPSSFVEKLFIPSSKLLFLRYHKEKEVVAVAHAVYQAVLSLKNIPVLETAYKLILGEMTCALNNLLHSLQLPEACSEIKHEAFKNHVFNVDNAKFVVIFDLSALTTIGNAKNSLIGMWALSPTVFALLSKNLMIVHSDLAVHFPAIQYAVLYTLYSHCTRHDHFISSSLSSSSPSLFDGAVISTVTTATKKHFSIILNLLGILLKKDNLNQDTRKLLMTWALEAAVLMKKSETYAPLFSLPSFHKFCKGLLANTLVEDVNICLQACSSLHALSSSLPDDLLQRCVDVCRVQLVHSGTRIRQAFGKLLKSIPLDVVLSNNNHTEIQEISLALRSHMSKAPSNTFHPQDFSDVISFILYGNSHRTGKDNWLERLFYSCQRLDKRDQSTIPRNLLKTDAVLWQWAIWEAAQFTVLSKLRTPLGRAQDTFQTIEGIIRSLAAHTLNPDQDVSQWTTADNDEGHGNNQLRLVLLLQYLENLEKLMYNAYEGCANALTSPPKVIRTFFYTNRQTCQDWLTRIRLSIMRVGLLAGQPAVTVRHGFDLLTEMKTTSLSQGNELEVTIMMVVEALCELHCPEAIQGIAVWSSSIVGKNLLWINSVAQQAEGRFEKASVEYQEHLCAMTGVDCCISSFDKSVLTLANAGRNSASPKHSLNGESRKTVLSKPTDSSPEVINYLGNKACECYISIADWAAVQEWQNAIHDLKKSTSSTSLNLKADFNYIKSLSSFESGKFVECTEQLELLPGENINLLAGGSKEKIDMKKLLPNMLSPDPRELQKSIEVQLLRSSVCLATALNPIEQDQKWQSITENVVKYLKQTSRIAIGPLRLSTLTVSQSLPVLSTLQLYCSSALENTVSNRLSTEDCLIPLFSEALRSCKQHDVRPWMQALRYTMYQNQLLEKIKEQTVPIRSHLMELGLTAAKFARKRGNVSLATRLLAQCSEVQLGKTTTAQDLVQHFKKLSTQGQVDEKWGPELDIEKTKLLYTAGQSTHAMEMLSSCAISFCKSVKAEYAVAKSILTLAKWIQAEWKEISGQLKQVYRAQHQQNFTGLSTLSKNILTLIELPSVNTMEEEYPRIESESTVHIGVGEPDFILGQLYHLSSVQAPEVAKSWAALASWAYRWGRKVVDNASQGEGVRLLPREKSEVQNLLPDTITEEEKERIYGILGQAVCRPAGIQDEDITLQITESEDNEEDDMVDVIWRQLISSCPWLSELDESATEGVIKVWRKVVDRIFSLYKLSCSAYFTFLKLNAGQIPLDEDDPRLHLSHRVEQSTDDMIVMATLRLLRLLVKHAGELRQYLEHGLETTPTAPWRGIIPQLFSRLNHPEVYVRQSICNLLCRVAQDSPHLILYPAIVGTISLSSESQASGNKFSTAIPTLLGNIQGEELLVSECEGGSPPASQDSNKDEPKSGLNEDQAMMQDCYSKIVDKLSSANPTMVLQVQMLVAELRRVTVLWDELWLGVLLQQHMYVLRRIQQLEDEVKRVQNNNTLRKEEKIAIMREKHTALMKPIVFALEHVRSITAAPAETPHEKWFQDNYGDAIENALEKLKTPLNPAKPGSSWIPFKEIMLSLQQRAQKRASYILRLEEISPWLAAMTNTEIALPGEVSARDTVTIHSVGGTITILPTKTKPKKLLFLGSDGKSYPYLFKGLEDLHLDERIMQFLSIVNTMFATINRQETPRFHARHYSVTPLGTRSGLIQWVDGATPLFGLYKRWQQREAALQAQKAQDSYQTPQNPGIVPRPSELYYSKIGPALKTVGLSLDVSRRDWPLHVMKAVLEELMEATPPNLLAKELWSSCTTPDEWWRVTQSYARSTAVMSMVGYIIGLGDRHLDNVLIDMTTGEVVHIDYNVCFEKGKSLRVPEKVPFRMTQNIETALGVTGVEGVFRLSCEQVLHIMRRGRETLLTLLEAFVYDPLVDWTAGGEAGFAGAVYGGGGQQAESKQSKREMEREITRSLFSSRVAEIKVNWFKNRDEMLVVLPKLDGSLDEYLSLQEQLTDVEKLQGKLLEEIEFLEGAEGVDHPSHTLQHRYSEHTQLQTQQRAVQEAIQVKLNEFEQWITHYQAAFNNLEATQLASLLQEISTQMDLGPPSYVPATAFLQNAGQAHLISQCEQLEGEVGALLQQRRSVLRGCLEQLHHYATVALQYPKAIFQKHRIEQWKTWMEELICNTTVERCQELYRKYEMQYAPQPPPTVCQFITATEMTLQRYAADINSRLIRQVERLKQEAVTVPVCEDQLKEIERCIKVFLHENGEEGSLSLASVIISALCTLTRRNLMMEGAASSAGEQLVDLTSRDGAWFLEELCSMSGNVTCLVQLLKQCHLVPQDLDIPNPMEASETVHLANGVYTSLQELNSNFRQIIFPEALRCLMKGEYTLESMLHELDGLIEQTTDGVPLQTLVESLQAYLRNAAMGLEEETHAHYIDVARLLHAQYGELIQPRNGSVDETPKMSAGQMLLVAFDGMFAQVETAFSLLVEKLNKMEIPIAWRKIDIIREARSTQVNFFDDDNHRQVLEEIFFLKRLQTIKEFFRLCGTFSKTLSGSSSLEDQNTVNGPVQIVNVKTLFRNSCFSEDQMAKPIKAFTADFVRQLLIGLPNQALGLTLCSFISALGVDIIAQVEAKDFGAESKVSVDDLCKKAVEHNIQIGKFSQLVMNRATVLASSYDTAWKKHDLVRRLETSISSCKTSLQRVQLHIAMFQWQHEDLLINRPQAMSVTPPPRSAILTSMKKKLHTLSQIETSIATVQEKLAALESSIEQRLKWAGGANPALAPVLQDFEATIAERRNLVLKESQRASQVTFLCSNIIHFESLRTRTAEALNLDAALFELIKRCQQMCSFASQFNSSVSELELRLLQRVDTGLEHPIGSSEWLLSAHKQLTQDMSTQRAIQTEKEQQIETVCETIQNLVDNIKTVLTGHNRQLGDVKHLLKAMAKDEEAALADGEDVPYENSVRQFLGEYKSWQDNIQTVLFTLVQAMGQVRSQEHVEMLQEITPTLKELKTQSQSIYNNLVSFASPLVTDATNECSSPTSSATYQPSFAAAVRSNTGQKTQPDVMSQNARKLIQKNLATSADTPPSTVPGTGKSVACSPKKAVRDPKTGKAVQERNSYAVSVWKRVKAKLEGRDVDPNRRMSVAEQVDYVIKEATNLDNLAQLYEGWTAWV

[10] = molecular target: Platelet-derived growth factor receptor alpha (Homo sapiens, UniProt P16234); assay: Selectivity interaction (Kinase panel (Invitrogen)) EUB0000639a PDGFRA; conditions: at 200 nM
Sequence of Platelet-derived growth factor receptor alpha (P16234 whole entry): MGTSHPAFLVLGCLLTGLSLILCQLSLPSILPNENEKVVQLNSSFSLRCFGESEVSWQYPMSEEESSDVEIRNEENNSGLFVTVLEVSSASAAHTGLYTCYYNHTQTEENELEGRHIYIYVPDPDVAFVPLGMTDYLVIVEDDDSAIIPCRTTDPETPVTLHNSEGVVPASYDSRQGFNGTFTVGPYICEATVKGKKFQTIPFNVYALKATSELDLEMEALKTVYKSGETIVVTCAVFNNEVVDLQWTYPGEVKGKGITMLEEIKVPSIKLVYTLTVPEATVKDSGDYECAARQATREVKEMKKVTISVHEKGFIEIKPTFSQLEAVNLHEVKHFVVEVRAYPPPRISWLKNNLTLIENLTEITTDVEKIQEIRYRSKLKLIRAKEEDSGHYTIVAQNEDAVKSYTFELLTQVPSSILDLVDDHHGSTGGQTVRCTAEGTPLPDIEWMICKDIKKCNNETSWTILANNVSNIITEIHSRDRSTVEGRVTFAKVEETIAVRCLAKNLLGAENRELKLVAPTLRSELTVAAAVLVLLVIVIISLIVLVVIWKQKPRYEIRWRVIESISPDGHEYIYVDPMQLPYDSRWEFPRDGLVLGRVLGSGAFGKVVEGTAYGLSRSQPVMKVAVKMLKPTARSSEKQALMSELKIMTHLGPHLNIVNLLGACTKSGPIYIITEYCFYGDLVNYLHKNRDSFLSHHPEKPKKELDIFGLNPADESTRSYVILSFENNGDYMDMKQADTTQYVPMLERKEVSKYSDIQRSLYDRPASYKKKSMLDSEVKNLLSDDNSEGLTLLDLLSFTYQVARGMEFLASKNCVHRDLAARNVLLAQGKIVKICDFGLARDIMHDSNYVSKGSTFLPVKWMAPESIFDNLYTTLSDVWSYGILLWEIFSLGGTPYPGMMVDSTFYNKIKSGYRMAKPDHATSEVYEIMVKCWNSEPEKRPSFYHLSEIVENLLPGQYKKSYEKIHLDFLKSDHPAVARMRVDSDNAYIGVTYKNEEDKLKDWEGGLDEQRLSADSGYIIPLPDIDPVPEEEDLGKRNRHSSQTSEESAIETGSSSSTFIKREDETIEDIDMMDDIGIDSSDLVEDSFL

[11] = molecular target: Mitogen-activated protein kinase kinase kinase kinase 5 (Homo sapiens) (UniProt Q9Y4K4); assay: Selectivity interaction (KinomeScan (DiscoverX)) EUB0001049a MAP4K5; conditions: at 1 µM
[12] = molecular target: T2, Myotonin-protein kinase (Homo sapiens) (UniProt Q09013); assay: Selectivity interaction (LanthaScreen Eu Kinase Binding Assay) EUB0001632a DMPK; conditions: at 10 µM
T2 sequence (whole entry): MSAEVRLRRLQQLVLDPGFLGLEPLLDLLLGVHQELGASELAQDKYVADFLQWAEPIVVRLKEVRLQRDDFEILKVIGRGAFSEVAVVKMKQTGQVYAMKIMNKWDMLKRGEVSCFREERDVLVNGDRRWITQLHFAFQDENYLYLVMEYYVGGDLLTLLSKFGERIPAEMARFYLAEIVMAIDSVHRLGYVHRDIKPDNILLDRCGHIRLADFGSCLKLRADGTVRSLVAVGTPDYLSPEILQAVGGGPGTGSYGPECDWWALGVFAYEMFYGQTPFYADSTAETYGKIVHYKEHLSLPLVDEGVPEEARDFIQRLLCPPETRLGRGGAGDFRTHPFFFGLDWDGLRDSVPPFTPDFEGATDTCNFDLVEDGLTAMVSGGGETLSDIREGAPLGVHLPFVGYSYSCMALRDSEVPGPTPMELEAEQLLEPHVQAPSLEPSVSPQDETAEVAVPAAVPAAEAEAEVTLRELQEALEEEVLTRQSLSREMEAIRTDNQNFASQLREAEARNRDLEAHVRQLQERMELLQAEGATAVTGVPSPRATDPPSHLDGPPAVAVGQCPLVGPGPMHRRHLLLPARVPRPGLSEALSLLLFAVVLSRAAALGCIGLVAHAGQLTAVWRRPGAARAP

[13] = molecular target: Mitogen-activated protein kinase 10 (Homo sapiens, UniProt P53779); assay: Selectivity interaction (LanthaScreen Eu Kinase Binding Assay) EUB0001632a MAPK10; conditions: at 10 µM

Sequence of Protein arginine N-methyltransferase 8 (Q9NR22 2-394 limits assumed): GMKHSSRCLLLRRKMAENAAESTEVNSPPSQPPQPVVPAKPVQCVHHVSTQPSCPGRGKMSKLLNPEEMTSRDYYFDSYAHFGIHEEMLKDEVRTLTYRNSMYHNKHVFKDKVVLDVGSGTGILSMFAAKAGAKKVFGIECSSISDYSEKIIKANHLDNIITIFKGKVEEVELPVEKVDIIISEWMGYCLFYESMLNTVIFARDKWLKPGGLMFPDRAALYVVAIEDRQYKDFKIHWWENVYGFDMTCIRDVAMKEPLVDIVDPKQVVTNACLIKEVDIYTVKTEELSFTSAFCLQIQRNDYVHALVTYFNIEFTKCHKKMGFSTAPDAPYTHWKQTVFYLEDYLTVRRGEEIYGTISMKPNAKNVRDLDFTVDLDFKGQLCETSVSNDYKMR

SMILES: COCCN1CCC(c2cc(CN(C)C(=O)c3cccc(Oc4ccccc4)c3)ccn2)CC1
- % activity ([1]; at 1 µM): 50%
- % activity ([1]; at 10 µM): > 90%

SMILES: CN(C)CCOc1ccc(-c2nc(-c3ccncc3)c(-c3ccc4c(c3)CC/C4=N\O)[nH]2)cc1
- % of control [2]: 79%

SMILES: O[C@H]1CC[C@H](Nc2ncc3nc(Nc4c(F)cc(F)cc4F)n([C@H]4CCOC4)c3n2)CC1
- % of control [3]: 100%

SMILES: CNC(=O)Nc1ccc(-c2nc(N3CC4CCC(C3)O4)c3cnn(C4CCC5(CC4)OCCO5)c3n2)cc1
- % of control [4]: 99%

SMILES: N#Cc1cccc(-c2c[nH]c3ncnc(N4CCOCC4)c23)c1
- % of control [5]: 100%

SMILES: COCC(=O)NC/C=C/c1ccc2ncnc(Nc3ccc(Oc4ccc(C)nc4)c(C)c3)c2c1 [CP-724714]
- % of control [6]: 100%

SMILES: Cc1cc([C@@H](C)Nc2ccccc2C(=O)O)c2nc(N3CCOCC3)cc(=O)n2c1 [AZD-6482]
- % of control [7]: 100%
- % of control [8]: 94%
- % of control (Insulin receptor): 100%

- % of inhibition ([9]; at 0.01 µM): 7.7%
- % of inhibition ([9]; at 0.04 µM): 1.9%
- % of inhibition ([9]; at 0.2 µM): 6.9%
- % of inhibition ([9]; at 1 µM): 6.1%
- % of inhibition ([9]; at 5 µM): -13.6%
- % of inhibition [10]: -0.518%
SMILES: CC[C@@H]1[C@H](F)C(=O)N[C@@H]1COc1nccc2cc(C(N)=O)c(OC)cc12 [ZIMLOVISERTIB]

SMILES: COc1cc(Nc2nc(C)cc(-c3cnn4nc(OC)ccc34)n2)cc(C(F)(F)F)c1
- % of control [11]: 94%

- % of inhibition [12]: -4.81%
- % of inhibition [13]: -2.22%
SMILES: Cn1cc(-n2cnc3c(NCc4nc5cc(Cl)c(Cl)cc5[nH]4)nc(N4CCOCC4)nc32)cn1

From ChEMBL document CHEMBL5465560, “Selectivity Literature for EUbOPEN Chemogenomic Library” (2024)
